Assay results: patent US9708314B2, “Heterocyclic amide compound” (NISSAN CHEMICAL INDUSTRIES, LTD., priority 2013, dated 2017)

What was measured:
Assay type in all cases: in vivo
[1] = system: Cyperus difformis; assay: Test Example 3: herbicidal effect by application to foliage (Wagner pot, water depth 0.1-0.5 cm); conditions: Nineteenth Table; application to foliage; application herbicide amount 224 g/ha
Text: (§1) 5 Herbicidal ratio of 90% or more (almost completely withered) 4 Herbicidal ratio of 70% or more and less than 90% 3 Herbicidal ratio of 40% or more and less than 70% 2 Herbicidal ratio of 20% or more and less than 40% 1 Herbicidal ratio of 5% or more and less than 20% 0 Herbicidal ratio of 5% or less (almost no effect) [Test Example 3] Herbicidal Effect Test by Application to Foliage After alluvial soil was placed into 1/10000 are of Wagner pot, water was poured and mixed to form a condition having a water depth of 0.1 cm to 0.5 cm. Seeds of Echinochloa crus-galli var. crus-galli, Leptochloa chinensis, Cyperus difformis, and Oryza sativa were sowed and the pot was placed in the greenhouse of 25° C. to 30° C. to grow the plants. After the plants were grown for 14 days, the emulsion agent containing the compound of the present invention prepared in accordance with Formulation Example 2 was diluted with water so as to be a predetermined herbicide amount and the diluted compound was uniformly applied to a stem and leaf part with a small-size spray. Three weeks after the herbicide application, effects on each plant were investigated in accordance with the criteria of Test Example 1. A: Echinochloa oryzicola Vasing., B: Scirpus juncoides, C: Monochoria vaginalis, D: Leptochloa chinensis, E: Cyperus difformis, F: Digitaria ciliaris, G: Setaria viridis, H: Echinochloa crus-galli var. crus-galli, I: Avena fatua, J: Alopecurus myosuroides, K: Lolium multiflorum Lam., L: Apera spica-venti., M: Abutilon theophrasti, N: Amaranthus retroflexus, O: Chenopodium album, P: Stellaria media, Q: Galium spurium, R: Veronica persica, a: transplanted Oryza sativa, b: directly sowed Oryza sativa, c: Zea mays, d: Glycine max, e: Triticum aestivum, f: Beta vulgaris ssp. vulgaris, and g: Brassica campestris L. The application herbicide amount (g/ha) means an amount that a concentration is adjusted so that, when an application amount is converted into per hectare (1 ha), the herbicide is applied by the number of grams (g) of the described value.

[2] = system: Echinochloa crus-galli var. crus-galli; assay: as above; conditions: Nineteenth Table; application to foliage; application herbicide amount 224 g/ha
Text: as §1

[3] = system: Leptochloa chinensis; assay: as above; conditions: Nineteenth Table; application to foliage; application herbicide amount 224 g/ha
Text: as §1

[4] = system: directly sowed Oryza sativa; assay: Test Example 3: effect on crop by application to foliage (Wagner pot, water depth 0.1-0.5 cm); conditions: Nineteenth Table; application to foliage; application herbicide amount 224 g/ha
Text: as §1

[5] = system: Abutilon theophrasti; assay: Test Example 4: herbicidal effect by application to foliage (diluvial soil, plastic box); conditions: for M: herbicidal effect on Abutilon theophrasti: application to foliage, application herbicide amount 320 g/ha
Text: (§2) 5 Herbicidal ratio of 90% or more (almost completely withered) 4 Herbicidal ratio of 70% or more and less than 90% 3 Herbicidal ratio of 40% or more and less than 70% 2 Herbicidal ratio of 20% or more and less than 40% 1 Herbicidal ratio of 5% or more and less than 20% 0 Herbicidal ratio of 5% or less (almost no effect) [Test Example 4] Herbicidal Effect Test by Application to Foliage Sterilized diluvial soil was placed in a plastic box having a length of 21 cm, a width of 13 cm, and a depth of 7 cm. Each of the seeds of Digitaria ciliaris, Setaria viridis, Echinochloa crus-galli var. crus-galli, Avena fatua, Alopecurus myosuroides, Lolium multiflorum Lam., Apera spica-venti., Abutilon theophrasti, Amaranthus retroflexus, Chenopodium album, Stellaria media, Galium spurium, Veronica persica, Zea mays, Glycine max, Oryza sativa, Triticum aestivum, Beta vulgaris ssp. vulgaris, and Brassica campestris L. was sowed in a spot-like manner and was covered with the soil of about 1.5 cm thick. Thereafter, the plants were grown in the greenhouse of 25° C. to 30° C. After the plants were grown for 14 days, the emulsion agent containing the compound of the present invention prepared in accordance with Formulation Example 2 was diluted with water so as to be a predetermined herbicide amount and the diluted compound was uniformly applied to a stem and leaf part with a small-size spray. Three weeks after the herbicide application, effects on each plant were investigated in accordance with the criteria of Test Example 1. A: Echinochloa oryzicola Vasing., B: Scirpus juncoides, C: Monochoria vaginalis, D: Leptochloa chinensis, E: Cyperus difformis, F: Digitaria ciliaris, G: Setaria viridis, H: Echinochloa crus-galli var. crus-galli, I: Avena fatua, J: Alopecurus myosuroides, K: Lolium multiflorum Lam., L: Apera spica-venti., M: Abutilon theophrasti, N: Amaranthus retroflexus, O: Chenopodium album, P: Stellaria media, Q: Galium spurium, R: Veronica persica, a: transplanted Oryza sativa, b: directly sowed Oryza sativa, c: Zea mays, d: Glycine max, e: Triticum aestivum, f: Beta vulgaris ssp. vulgaris, and g: Brassica campestris L. The application herbicide amount (g/ha) means an amount that a concentration is adjusted so that, when an application amount is converted into per hectare (1 ha), the herbicide is applied by the number of grams (g) of the described value.

[6] = system: Alopecurus myosuroides; assay: as above; conditions: for J: herbicidal effect on Alopecurus myosuroides: application to foliage, application herbicide amount 320 g/ha
Text: as §2

[7] = system: Apera spica-venti.; assay: as above; conditions: for L: herbicidal effect on Apera spica-venti.: application to foliage, application herbicide amount 320 g/ha
Text: as §2

[8] = system: Avena fatua; assay: as above; conditions: for I: herbicidal effect on Avena fatua: application to foliage, application herbicide amount 320 g/ha
Text: as §2

[9] = system: Chenopodium album; assay: as above; conditions: for O: herbicidal effect on Chenopodium album: application to foliage, application herbicide amount 320 g/ha
Text: as §2

[10] = system: Digitaria ciliaris; assay: as above; conditions: for F: herbicidal effect on Digitaria ciliaris: application to foliage, application herbicide amount 320 g/ha
Text: as §2

[11] = system: Echinochloa crus-galli var. crus-galli; assay: as above; conditions: for H: herbicidal effect on Echinochloa crus-galli var. crus-galli: application to foliage, application herbicide amount 320 g/ha
Text: as §2

[12] = system: Galium spurium; assay: as above; conditions: for Q: herbicidal effect on Galium spurium: application to foliage, application herbicide amount 320 g/ha
Text: as §2

[13] = system: Lolium multiflorum Lam.; assay: as above; conditions: for K: herbicidal effect on Lolium multiflorum Lam.: application to foliage, application herbicide amount 320 g/ha
Text: as §2

[14] = system: Setaria viridis; assay: as above; conditions: for G: herbicidal effect on Setaria viridis: application to foliage, application herbicide amount 320 g/ha
Text: as §2

[15] = system: Veronica persica; assay: as above; conditions: for R: herbicidal effect on Veronica persica: application to foliage, application herbicide amount 320 g/ha
Text: as §2

[16] = system: Beta vulgaris ssp. vulgaris; assay: Test Example 4: effect on crop by application to foliage (diluvial soil, plastic box); conditions: for f: effect on crop, Beta vulgaris ssp. vulgaris: application to foliage, application herbicide amount 320 g/ha
Text: as §2

[17] = system: Brassica campestris L.; assay: as above; conditions: for g: effect on crop, Brassica campestris L.: application to foliage, application herbicide amount 320 g/ha
Text: as §2

[18] = system: Glycine max; assay: as above; conditions: for d: effect on crop, Glycine max: application to foliage, application herbicide amount 320 g/ha
Text: as §2

[19] = system: Triticum aestivum; assay: as above; conditions: for e: effect on crop, Triticum aestivum: application to foliage, application herbicide amount 320 g/ha
Text: as §2

[20] = system: Zea mays; assay: as above; conditions: for c: effect on crop, Zea mays: application to foliage, application herbicide amount 320 g/ha
Text: as §2

[21] = system: directly sowed Oryza sativa; assay: as above; conditions: for b: effect on crop, directly sowed Oryza sativa: application to foliage, application herbicide amount 320 g/ha
Text: as §2

[22] = system: Amaranthus retroflexus; assay: Test Example 4: herbicidal effect by application to foliage (diluvial soil, plastic box); conditions: application to foliage, application herbicide amount 320 g/ha
Text: as §2

[23] = system: Stellaria media; assay: as above; conditions: application to foliage, application herbicide amount 320 g/ha
Text: as §2

[24] = Application herbicide amount 224 g/ha
[25] = Application herbicide amount 224 g/ha, effect on crop

Question: What does the source list for `Cc1nnc(NC(=O)c2c(C)cc(C(F)(F)F)n3c(C(C)C)nnc23)o1` [1-089]?
Answer: E (herbicidal effect grade) [1]: 2 (Herbicidal ratio of 20% or more and less than 40%); H (herbicidal effect grade) [2]: 3 (Herbicidal ratio of 40% or more and less than 70%); D (herbicidal effect grade) [3]: 3 (Herbicidal ratio of 40% or more and less than 70%); b (effect on crop grade) [4]: 0 (Herbicidal ratio of 5% or less (almost no effect)); M [5, 24]: 2 (Herbicidal ratio of 20% or more and less than 40%); J [6, 24]: 0 (Herbicidal ratio of 5% or less (almost no effect)); L [7, 24]: 0 (Herbicidal ratio of 5% or less (almost no effect)); I [8, 24]: 2 (Herbicidal ratio of 20% or more and less than 40%); O [9, 24]: 4 (Herbicidal ratio of 70% or more and less than 90%); F [10, 24]: 1 (Herbicidal ratio of 5% or more and less than 20%); H [11, 24]: 3 (Herbicidal ratio of 40% or more and less than 70%); Q [12, 24]: 0 (Herbicidal ratio of 5% or less (almost no effect)); K [13, 24]: 0 (Herbicidal ratio of 5% or less (almost no effect)); G [14, 24]: 0 (Herbicidal ratio of 5% or less (almost no effect)); R [15, 24]: 3 (Herbicidal ratio of 40% or more and less than 70%); f [16, 25]: 3 (Herbicidal ratio of 40% or more and less than 70%); g [17, 25]: 1 (Herbicidal ratio of 5% or more and less than 20%); c [18, 25]: 0 (Herbicidal ratio of 5% or less (almost no effect)); e [19, 25]: 0 (Herbicidal ratio of 5% or less (almost no effect)); b [20, 25]: 0 (Herbicidal ratio of 5% or less (almost no effect)); d [21, 25]: 1 (Herbicidal ratio of 5% or more and less than 20%)

Question: What does the source list for `CC#Cc1nnc2c(C(=O)Nc3nnco3)ccc(C(F)(F)F)n12` [1-160]?
Answer: M: herbicidal effect on Abutilon theophrasti [5]: 3 (Herbicidal ratio of 40% or more and less than 70%); J: herbicidal effect on Alopecurus myosuroides [6]: 0 (Herbicidal ratio of 5% or less (almost no effect)); N: herbicidal effect on Amaranthus retroflexus [22]: 1 (Herbicidal ratio of 5% or more and less than 20%); L: herbicidal effect on Apera spica-venti. [7]: 0 (Herbicidal ratio of 5% or less (almost no effect)); I: herbicidal effect on Avena fatua [8]: 0 (Herbicidal ratio of 5% or less (almost no effect)); O: herbicidal effect on Chenopodium album [9]: 4 (Herbicidal ratio of 70% or more and less than 90%); F: herbicidal effect on Digitaria ciliaris [10]: 1 (Herbicidal ratio of 5% or more and less than 20%); H: herbicidal effect on Echinochloa crus-galli var. crus-galli [11]: 2 (Herbicidal ratio of 20% or more and less than 40%); Q: herbicidal effect on Galium spurium [12]: 0 (Herbicidal ratio of 5% or less (almost no effect)); K: herbicidal effect on Lolium multiflorum Lam. [13]: 0 (Herbicidal ratio of 5% or less (almost no effect)); G: herbicidal effect on Setaria viridis [14]: 0 (Herbicidal ratio of 5% or less (almost no effect)); P: herbicidal effect on Stellaria media [23]: 3 (Herbicidal ratio of 40% or more and less than 70%); R: herbicidal effect on Veronica persica [15]: 1 (Herbicidal ratio of 5% or more and less than 20%); f: effect on crop, Beta vulgaris ssp. vulgaris [16]: 2 (Herbicidal ratio of 20% or more and less than 40%); g: effect on crop, Brassica campestris L. [17]: 0 (Herbicidal ratio of 5% or less (almost no effect)); d: effect on crop, Glycine max [18]: 2 (Herbicidal ratio of 20% or more and less than 40%); e: effect on crop, Triticum aestivum [19]: 0 (Herbicidal ratio of 5% or less (almost no effect)); c: effect on crop, Zea mays [20]: 0 (Herbicidal ratio of 5% or less (almost no effect)); b: effect on crop, directly sowed Oryza sativa [21]: 0 (Herbicidal ratio of 5% or less (almost no effect))

Question: What does the source list for `CC(C)c1nnc2c(C(=O)Nc3nnnn3C)cc(C(F)(F)F)cn12` [2-018]?
Answer: M: herbicidal effect on Abutilon theophrasti [5]: 3 (Herbicidal ratio of 40% or more and less than 70%); J: herbicidal effect on Alopecurus myosuroides [6]: 0 (Herbicidal ratio of 5% or less (almost no effect)); N: herbicidal effect on Amaranthus retroflexus [22]: 3 (Herbicidal ratio of 40% or more and less than 70%); L: herbicidal effect on Apera spica-venti. [7]: 0 (Herbicidal ratio of 5% or less (almost no effect)); I: herbicidal effect on Avena fatua [8]: 0 (Herbicidal ratio of 5% or less (almost no effect)); O: herbicidal effect on Chenopodium album [9]: 3 (Herbicidal ratio of 40% or more and less than 70%); F: herbicidal effect on Digitaria ciliaris [10]: 2 (Herbicidal ratio of 20% or more and less than 40%); H: herbicidal effect on Echinochloa crus-galli var. crus-galli [11]: 1 (Herbicidal ratio of 5% or more and less than 20%); Q: herbicidal effect on Galium spurium [12]: 1 (Herbicidal ratio of 5% or more and less than 20%); K: herbicidal effect on Lolium multiflorum Lam. [13]: 0 (Herbicidal ratio of 5% or less (almost no effect)); G: herbicidal effect on Setaria viridis [14]: 1 (Herbicidal ratio of 5% or more and less than 20%); P: herbicidal effect on Stellaria media [23]: 0 (Herbicidal ratio of 5% or less (almost no effect)); R: herbicidal effect on Veronica persica [15]: 2 (Herbicidal ratio of 20% or more and less than 40%); f: effect on crop, Beta vulgaris ssp. vulgaris [16]: 1 (Herbicidal ratio of 5% or more and less than 20%); g: effect on crop, Brassica campestris L. [17]: 0 (Herbicidal ratio of 5% or less (almost no effect)); d: effect on crop, Glycine max [18]: 0 (Herbicidal ratio of 5% or less (almost no effect)); e: effect on crop, Triticum aestivum [19]: 0 (Herbicidal ratio of 5% or less (almost no effect)); c: effect on crop, Zea mays [20]: 0 (Herbicidal ratio of 5% or less (almost no effect)); b: effect on crop, directly sowed Oryza sativa [21]: 0 (Herbicidal ratio of 5% or less (almost no effect))
